According to patent publication US20040147500A1, “Injectable galenic formulation for use in a diagnosis or a photodynamic therapy and method for preparing same” (priority 2001, published 2004):

Legend:
[1] = test system: mice (OF), rats (Sprague Dawley), monkeys (Cynomolgus); assay type: in vivo; settings: intravenous, provided the injections were made slowly
Procedure: 1—Mice (OF, of a weight varying from 25 to 35 grams): 10 animals of each sex for each dose (2×25, 2×50, 2×75 and 1×100 mg/kg).The product was injected into the caudal vein.
2—Rats (Sprague Dawley, of a weight varying from 150 to 230 grams): 4 to 10 animals of each sex for each dose (from 4 to 200 mg/kg). The product was injected into the caudal vein.
3—Monkeys (Cynomolgus of a weight varying from 1.8 kg to 3.5 kg): 1 animal of each sex for each dose (8, 16 and 24 mg/kg). The product was injected into the saphenous vein or into the cephalic vein once a day during 7 days.
The assessment of the animals was made on the basis of clinical signs, biological analyses carried out on the blood and the urine and of histopathological examinations.

[2] = test system: rats (Sprague Dawley), rabbits (New-Zealand albino), monkeys (Cynomolgus); assay type: in vivo; settings: intravenous, injection speeds up to 4 ml/min
Procedure: Male rats (Sprague Dawley): 6 to 12 animals for each dose (2×5, 2×10 and 2×20 mg/kg. The product was injected intravenously into the caudal vein.
Rabbits (New-Zealand albino rabbits): 5 animals received the dose of 5 mg/kg. The product was injected three times intravenously, once intra-arterially and once perivenously.
Monkeys (Cynomolgus, of a weight varying from 2.5 to 3.2 kg): 6 to 10 animals of each sex for each dose (1, 2, 5 and 6 mg/kg). The product was injected intravenously into the saphenous vein or into the cephalic vein, once each day during 14 days.
Monkeys (Cyonomolgus of a weight varying from 2.25 to 4.7 kg): 3 to 6 animals for each dose (2 and 5 mg/kg). The product was injected intravenously into the saphenous vein or into the cephalic vein.
The assessment of the animals was made on the basis of clinical signs, biological analyses carried out on the blood and on the urine, cardiovascular examinations and of histopathological examinations.

[3] = in vivo; cited from earlier work

In the case of “Pd-bacteriopheophorbide a [Pd-Bpheide a]”, the “tolerance in toxicity studies” value [1] is listed as “well tolerated”, the “tolerance in toxicity studies” value [2] is listed as “well tolerated” and the “cutaneous and ocular photosensitisation” value [3] is listed as “no or little cutaneous photosensitisation”.
